According to patent US10154992B2, “Compounds and methods for treating HIV infection” (THE REGENTS OF THE UNIVERSITY OF CALIFORNIA, priority 2016, dated 2018):
Where two headings read alike, the source gives them in different places.

What was measured:
Type in all cases: cell-based
[1] = MTT cell viability run in parallel with the Tat-hybrid assay; details: human, Tat-hybrid reporter cell lines (HeLa); for CC50 at 48 h: Table 5, read-out: Tat hybrid TC50; for EC50 at 48 h: Table 6, second 'EC50' entry of the cell, values D/E
Method: (§1) Cells were counted and plated into white 384-well or 96-well cell-culture treated assay plates and compounds were added. After 48 hours, the cells were prepared for luminescence assays that were performed on a plate reader (Tecan Evolution or MD Analyst). The cytotoxicity of each compound was determined in parallel via MTT-based cell viability assays.
as §1, with “Tat hybrid reporter assay. […] Previously characterized thienopyridines and diaminoacridine were used as controls. Cells” for “Cells”, “384-well” for “384-well or 96-well”, “lumincescence” for “luminescence”, “assays. […]” for “assays.”

[2] = MTT cell viability in parallel with the U1 assay; details: human, U1 cells, read-out: U1 TC50
Method: (§2) U1 activation assay. U1 cells obtained from the AIDS Research and Reference Reagent Program were maintained under standard culture conditions in RPMI 1640 supplemented with 10% fetal bovine serum (heat inactivated), 2 mM L-glutamine, 100U/mL penicillin and 100 μg/mL streptomycin. U1 cells contain an integrated copy of a phorbol ester inducible HIV-1 provirus and addition of phytohemagglutinin (PHA) to the cell culture was used to induce virus production. On the day of the assay, the U1 cells were activated with PHA and 250,000 cells were plated in 96-well plates. Test compounds were diluted in media and applied to the cells at final concentrations from 1 to 10,000 nM. Cultures were incubated for 3 days and supernatants harvested. Cell-free virus production was measured by p24 ELISA on culture supernatant. Compound toxicity was determined by MTT cell-viability assay in parallel assays.

[3] = system: HIV-1 provirus in U1 cells; test: U1 activation (latency) assay, p24 ELISA
Method: as §2

[4] = system: Tat-hybrid reporter cell lines (HeLa); test: MTT cell viability run in parallel with the Tat-hybrid assay; details: Table 6; at 50,000 nM
Method: as §1
as §1, with “Tat hybrid reporter assay. […] Previously characterized thienopyridines and diaminoacridine were used as controls. Cells” for “Cells”, “384-well” for “384-well or 96-well”, “lumincescence” for “luminescence”, “assays. […]” for “assays.”

[5] = Human immunodeficiency virus 1, Table 5, read-out: U1 IC50
[6] = Human immunodeficiency virus 1, read-out: U1 cell IC50 (nM)
[7] = Human immunodeficiency virus 1, Table 2, read-out: U1 cell IC50

Row | Compound | CC50 at 48 h [1] [µM] | CC50 at 3 days ([2]; Table 5) [µM] | IC50 [3, 5] [nM] | also measured
1 | CCOc1ccc(-c2cncc3sc(C(N)=O)cc23)cc1 | < 40 | < 40 | < 100 | –
2 | NC(=O)c1cc2c(-c3ccc4c(c3)OCCO4)cncc2s1 | < 40 | < 40 | < 100 | –
3 | NC(=O)c1sc2cncc(N3CCc4ccccc4C3)c2c1N | < 40 | < 40 | < 100 | –
4 | NC(=O)c1sc2cncc(-c3cccc4ccccc34)c2c1N | > 40 | < 40 | < 100 | –
5 | COc1cc2c(cc1OC)CN(c1cncc3sc(C(N)=O)c(N)c13)CC2 | < 40 | < 40 | < 100 | –
6 | NC(=O)c1sc2cncc(N3CCc4sccc4C3)c2c1N | > 40 | < 40 | < 100 | –
7 | CN(C)c1ccc(-c2cncc3sc(C(N)=O)c(N)c23)cc1 | < 40 | > 40 | < 100 | –
8 | NC(=O)c1cc2c(-c3ccc(Oc4ccccc4)cc3)cncc2s1 | < 40 | – | 100 to 500 | –
9 | NC(=O)c1cc2c(N3CCCCC3)cncc2s1 | > 40 | < 40 | 100 to 500 | –
10 | NC(=O)c1cc2c(-c3cc4ccccc4o3)cncc2s1 | > 40 | < 40 | > 500 | –
11 | CNC(=O)c1ccc(-c2cncc3sc(C(N)=O)c(N)c23)cc1 | < 40 | > 40 | < 100 | –
12 | CN(C)C(=O)c1ccc(-c2cncc3sc(C(N)=O)c(N)c23)cc1 | < 40 | > 40 | 100 to 500 | –
13 | NC(=O)c1sc2cncc(-c3ccoc3)c2c1N | > 40 | < 40 | 100 to 500 | –
14 | NC(=O)c1cc2c(-c3ccccc3OC(F)(F)F)cncc2s1 | > 40 | < 40 | > 500 | –
15 | NC(=O)c1sc2cncc(-c3ccc4cc[nH]c4c3)c2c1N | > 40 | > 40 | 100 to 500 | –
16 | NC(=O)c1sc2cncc(-c3ccc4c(c3)OCCO4)c2c1N | < 40 | > 40 | 100 to 500 | –
17 | NC(=O)c1cc2c(N3CCOCC3)cncc2s1 | > 40 | < 40 | 100 to 500 | –
18 | COc1ccccc1-c1cncc2sc(C(N)=O)c(N)c12 | > 40 | > 40 | 100 to 500 | –
19 | COc1ncc(-c2cncc3sc(C(N)=O)cc23)c(OC)n1 | > 40 | > 40 | > 500 | –

Row | Compound | CC50 at 48 h [1] [µM] | CC50 at 3 days ([2]; Table 5) [µM] | IC50 [3, 5] [nM] | also measured
20 | CCOc1ncccc1-c1cncc2sc(C(N)=O)c(N)c12 | > 40 | > 40 | 100 to 500 | –
21 | NC(=O)c1sc2cncc(N3CCN(C=O)CC3)c2c1N | < 40 | > 40 | > 500 | –
22 | CN(C)c1cncc2sc(C(N)=O)c(N)c12 | < 40 | > 40 | 100 to 500 | –
23 | CN(C)c1cccc(-c2cncc3sc(C(N)=O)c(N)c23)c1 | < 40 | > 40 | 100 to 500 | –
24 | NC(=O)c1sc2cncc(N3CCCC(COc4ccccc4F)C3)c2c1N (stereo not drawn) | < 40 | < 40 | > 500 | –
25 | NC(=O)c1sc2cncc(N3CCCC3)c2c1N | – | > 40 | 100 to 500 | –
26 | NC(=O)c1sc2cncc(-c3ccccc3)c2c1N | – | > 40 | 100 to 500 | –
27 | NC(=O)c1sc2nc(-c3cccnc3)ccc2c1N | – | – | – | Tat hybrid cell viability at 50,000 nM [4]: X (X = >60%); EC50 at 48 h [1]: < 40 µM
28 | COC(=O)c1sc2nc(C)cc(C)c2c1N | – | – | – | Tat hybrid cell viability at 50,000 nM [4]: X (X = >60%); EC50 at 48 h [1]: > 40 µM
29 | Cc1nc2sc(C(N)=O)c(N)c2c(C)c1C | – | – | – | Tat hybrid cell viability at 50,000 nM [4]: X (X = >60%); EC50 at 48 h [1]: > 40 µM
30 | COc1ccc(-c2cc(C3CC3)nc3sc(C(N)=O)c(N)c23)cc1 | – | – | – | Tat hybrid cell viability at 50,000 nM [4]: X (X = >60%); EC50 at 48 h [1]: > 40 µM
31 | Cc1ccc(-c2c3c(nc4sc(C(N)=O)c(N)c24)CCC3)cc1 | – | – | – | Tat hybrid cell viability at 50,000 nM [4]: X (X = >60%); CC50 at 3 days ([2]; Table 6): < 40 µM; IC50 ([3]; Human immunodeficiency virus 1, Table 6, read-out: U1 IC50): > 500 nM
32 | Cc1ccnc2sc(C(N)=O)c(N)c12 | – | – | – | Tat hybrid cell viability at 50,000 nM [4]: X (X = >60%); EC50 at 48 h [1]: < 40 µM
33 | Cc1cc(C)c2c(N)c(C(=O)O)sc2n1 | – | – | – | Tat hybrid cell viability at 50,000 nM [4]: X (X = >60%); EC50 at 48 h [1]: > 40 µM
34 | NC(=O)c1sc2ncccc2c1N | – | – | – | Tat hybrid cell viability at 50,000 nM [4]: Y (Y = 30-60%); EC50 at 48 h [1]: > 40 µM
35 | CC(=O)c1sc2nc(C)cc(C)c2c1N | – | – | – | Tat hybrid cell viability at 50,000 nM [4]: Y (Y = 30-60%); EC50 at 48 h [1]: > 40 µM
36 | COC(=O)c1sc2nccc(N(C)C)c2c1N | – | – | – | Tat hybrid cell viability at 50,000 nM [4]: X (X = >60%); EC50 at 48 h [1]: < 40 µM
37 | CN(C)C(=O)c1sc2ncccc2c1N | – | – | – | Tat hybrid cell viability at 50,000 nM [4]: X (X = >60%); EC50 at 48 h [1]: < 40 µM
38 | CN(C)c1ccnc2sc(C(N)=O)c(N)c12 [Compound 1f, 3-amino-4-(dimethylamino)thieno[2,3-b]pyridine-2-carboxamide] | – | – | – | IC50 [3, 6]: > 500 nM

Row | Compound | CC50 at 48 h [1] [µM] | CC50 at 3 days ([2]; Table 5) [µM] | IC50 [3, 5] [nM] | also measured
39 | NC(=O)c1sc2cncc(N3CCC(C(N)=O)CC3)c2c1N [Compound 2c, 1-{3-amino-2-carbamoylthieno[2,3-c]pyridin-4-yl}piperidine-4-carboxamide] | – | – | – | IC50 [3, 6]: 100 to 500 nM
40 | NC(=O)c1sc2cncc(N3CCC4(CC3)OCCO4)c2c1N [Compound 2g, 3-amino-4-{1,4-dioxa-8-azaspiro[4.5]decan-8-yl}thieno[2,3-c]pyridine-2-carboxamide] | – | – | – | IC50 [3, 6]: 100 to 500 nM
41 | NC(=O)c1sc2cncc(N3CCC(F)(F)CC3)c2c1N [Compound 2h, 3-amino-4-(4,4-difluoropiperidin-1-yl)thieno[2,3-c]pyridine-2-carboxamide] | – | – | – | IC50 [3, 6]: 100 to 500 nM
42 | NC(=O)c1sc2nccc(N3CCc4ccccc4C3)c2c1N [Compound 2i, 3-amino-4-(1,2,3,4-tetrahydroisoquinolin-2-yl)thieno[2,3-b]pyridine-2-carboxamide] | – | – | – | IC50 [3, 6]: < 100 nM
43 | NC(=O)c1sc2cncc(N3CCC(Oc4ccccc4)CC3)c2c1N [Compound 2j, 3-amino-4-(4-phenoxypiperidin-1-yl)thieno[2,3-c]pyridine-2-carboxamide] | – | – | – | IC50 [3, 6]: < 100 nM
44 | Cc1noc(C2CCCN(c3cncc4sc(C(N)=O)c(N)c34)C2)n1 (stereo not drawn) [Compound 2k, 3-amino-4-[3-(3-methyl-1,2,4-oxadiazol-5-yl)piperidin-1-yl]thieno[2,3-c]pyridine-2-carboxamide] | – | – | – | IC50 [3, 6]: > 500 nM
45 | COc1ccc(-c2cncc3sc(C(N)=O)c(N)c23)cc1 [Compound 3a, 3-amino-4-(4-methoxyphenyl)thieno[2,3-c]pyridine-2-carboxamide] | – | – | – | IC50 [3, 7]: < 100 nM
46 | NC(=O)c1sc2cncc(-c3ccc4c(c3)CCO4)c2c1N [Compound 3e, 3-amino-4-(2,3-dihydro-1-benzofuran-5-yl)thieno[2,3-c]pyridine-2-carboxamide] | – | – | – | IC50 [3, 7]: < 100 nM
47 | NC(=O)c1sc2cncc(-c3ccc4c(c3)OCO4)c2c1N [Compound 3f, 3-amino-4-(2H-1,3-benzodioxol-5-yl)thieno[2,3-c]pyridine-2-carboxamide] | – | – | – | IC50 [3, 7]: 100 to 500 nM
48 | N#Cc1ccc(-c2cncc3sc(C(N)=O)cc23)cc1F [Compound 4c, 4-(4-cyano-3-fluorophenyl)thieno[2,3-c]pyridine-2-carboxamide] | – | – | – | IC50 [3, 7]: 100 to 500 nM
49 | N#Cc1ccccc1-c1cncc2sc(C(N)=O)cc12 [Compound 4d, 4-(2-cyanophenyl)thieno[2,3-c]pyridine-2-carboxamide] | – | – | – | IC50 [3, 7]: > 500 nM
50 | NC(=O)c1cc2c(-c3ccc4c(c3)OCO4)cncc2s1 [Compound 4f, 4-(2H-1,3-benzodioxol-5-yl)thieno[2,3-c]pyridine-2-carboxamide] | – | – | – | IC50 [3, 7]: < 100 nM
51 | NC(=O)c1cc2c(-c3cccc(-c4ccccc4)c3)cncc2s1 [Compound 4j, 4-(3-phenylphenyl)thieno[2,3-c]pyridine-2-carboxamide] | – | – | – | IC50 [3, 7]: 100 to 500 nM
52 | COc1ccc(-c2cncc3sc(C(N)=O)c(N)c23)cc1 [drawing 136] | < 40 | > 40 | < 100 | –
53 | NC(=O)c1cc2c(-c3ccc4c(c3)OCO4)cncc2s1 [drawing 137] | < 40 | < 40 | < 100 | –
54 | NC(=O)c1sc2cncc(N3CCC(Oc4ccccc4)CC3)c2c1N [drawing 139] | > 40 | < 40 | < 100 | –
55 | N#Cc1ccc(-c2cncc3sc(C(N)=O)cc23)cc1F [drawing 143] | > 40 | – | 100 to 500 | –
56 | NC(=O)c1cc2c(-c3cccc(-c4ccccc4)c3)cncc2s1 [drawing 145] | > 40 | < 40 | 100 to 500 | –
57 | NC(=O)c1sc2cncc(-c3ccc4c(c3)CCO4)c2c1N [drawing 151] | < 40 | > 40 | < 100 | –
